In patent US5298492A, “Diamino acid derivatives as antihypertensives” (Schering Corporation, priority 1992, dated 1994):

Key:
[1] = molecular target: NEP (neutral endopeptidase) (Homo sapiens, UniProt P08473); assay: NEP inhibition IC50; assay type: biochemical
[2] = molecular target: ACE (angiotensin converting enzyme) (Homo sapiens, UniProt P12821); assay: ACE inhibition IC50; assay type: biochemical
ACE (angiotensin converting enzyme), sequence (P12821 30-1306, species assumed): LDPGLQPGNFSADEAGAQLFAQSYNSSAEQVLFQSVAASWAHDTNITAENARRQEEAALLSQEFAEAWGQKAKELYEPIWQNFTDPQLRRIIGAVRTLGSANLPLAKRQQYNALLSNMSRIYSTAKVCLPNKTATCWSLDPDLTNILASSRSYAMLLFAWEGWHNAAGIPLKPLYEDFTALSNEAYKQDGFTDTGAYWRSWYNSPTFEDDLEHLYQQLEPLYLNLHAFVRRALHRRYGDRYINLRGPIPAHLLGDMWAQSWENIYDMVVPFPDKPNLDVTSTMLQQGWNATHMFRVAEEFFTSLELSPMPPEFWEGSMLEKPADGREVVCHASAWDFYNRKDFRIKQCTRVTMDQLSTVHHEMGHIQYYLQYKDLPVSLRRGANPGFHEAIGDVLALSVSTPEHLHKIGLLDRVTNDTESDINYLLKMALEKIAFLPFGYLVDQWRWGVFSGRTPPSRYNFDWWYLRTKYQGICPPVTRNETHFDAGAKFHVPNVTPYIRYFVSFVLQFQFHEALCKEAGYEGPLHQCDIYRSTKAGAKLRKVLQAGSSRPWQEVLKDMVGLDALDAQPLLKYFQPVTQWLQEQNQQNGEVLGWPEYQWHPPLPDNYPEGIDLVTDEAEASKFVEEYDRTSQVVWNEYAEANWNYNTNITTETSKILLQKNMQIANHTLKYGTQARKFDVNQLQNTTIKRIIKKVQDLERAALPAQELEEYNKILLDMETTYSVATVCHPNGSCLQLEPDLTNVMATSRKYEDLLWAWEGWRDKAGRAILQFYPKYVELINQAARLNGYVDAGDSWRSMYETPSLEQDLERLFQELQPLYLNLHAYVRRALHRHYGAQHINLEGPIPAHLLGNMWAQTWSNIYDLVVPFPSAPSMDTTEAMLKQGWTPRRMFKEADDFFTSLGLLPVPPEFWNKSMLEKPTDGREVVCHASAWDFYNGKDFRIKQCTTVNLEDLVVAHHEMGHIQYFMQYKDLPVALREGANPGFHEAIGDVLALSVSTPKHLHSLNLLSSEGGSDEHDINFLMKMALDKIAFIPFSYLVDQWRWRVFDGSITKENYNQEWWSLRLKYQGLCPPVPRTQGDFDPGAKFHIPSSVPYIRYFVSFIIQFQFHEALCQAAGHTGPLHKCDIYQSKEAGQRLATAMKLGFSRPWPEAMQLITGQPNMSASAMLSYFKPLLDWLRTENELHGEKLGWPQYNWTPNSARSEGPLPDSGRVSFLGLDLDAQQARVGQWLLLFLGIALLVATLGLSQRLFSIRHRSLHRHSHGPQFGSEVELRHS

NEP (neutral endopeptidase), sequence (P08473 whole entry, species assumed): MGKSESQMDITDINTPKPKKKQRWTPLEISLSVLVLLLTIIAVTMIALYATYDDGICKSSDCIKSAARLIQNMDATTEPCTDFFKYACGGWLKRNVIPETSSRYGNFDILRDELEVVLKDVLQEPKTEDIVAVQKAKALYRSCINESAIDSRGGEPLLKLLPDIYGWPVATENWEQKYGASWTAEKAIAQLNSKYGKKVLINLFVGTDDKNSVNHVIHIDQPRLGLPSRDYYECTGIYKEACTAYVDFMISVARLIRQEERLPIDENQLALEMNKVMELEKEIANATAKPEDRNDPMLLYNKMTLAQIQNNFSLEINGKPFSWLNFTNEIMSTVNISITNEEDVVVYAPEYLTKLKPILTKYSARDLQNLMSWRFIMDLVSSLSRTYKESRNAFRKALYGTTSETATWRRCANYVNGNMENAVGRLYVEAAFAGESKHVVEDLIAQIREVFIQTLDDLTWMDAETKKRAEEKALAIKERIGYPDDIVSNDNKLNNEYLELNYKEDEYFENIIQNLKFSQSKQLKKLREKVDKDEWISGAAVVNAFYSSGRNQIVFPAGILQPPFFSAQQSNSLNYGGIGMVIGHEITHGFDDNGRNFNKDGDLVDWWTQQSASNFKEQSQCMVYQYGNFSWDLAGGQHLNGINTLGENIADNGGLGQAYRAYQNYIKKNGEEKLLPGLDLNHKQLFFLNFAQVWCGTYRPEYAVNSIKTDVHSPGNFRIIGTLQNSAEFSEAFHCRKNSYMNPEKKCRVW

Row | SMILES | IC50 [1] [nM] | IC50 [2] [nM]
1 | CS(=O)(=O)N[C@@H](CCCCN)C(=O)NC[C@H](NC1(C(=O)N[C@@H](Cc2ccc(O)cc2)C(=O)O)CC1)C(=O)O | > 300 | 150
2 | CS(=O)(=O)N[C@@H](CCCCN)C(=O)NC[C@H](NC(C(=O)N[C@@H](Cc1ccc(O)cc1)C(=O)O)C1CC1)C(=O)O (single isomer, unassigned) [listing 1 of 2 here] | 40 | 15
3 | CC(C)[C@H](N[C@@H](CNC(=O)[C@H](CCCCNC(=O)OCc1ccccc1)NS(C)(=O)=O)C(=O)O)C(=O)N[C@@H](Cc1ccc(O)cc1)C(=O)O | 2 | 30
4 | CCN=C(NCC)NCCCC[C@H](NS(C)(=O)=O)C(=O)NC[C@H](N[C@@H](Cc1ccccc1)C(=O)N[C@@H](Cc1ccc(O)cc1)C(=O)O)C(=O)O | 95 | 8
5 | CC(C)[C@H](N[C@@H](CNC(=O)[C@H](CCCCN)NS(C)(=O)=O)C(=O)O)C(=O)N[C@@H](Cc1ccc(O)cc1)C(=O)O | 7 | 50
6 | CCOC(=O)[C@H](Cc1ccc(O)cc1)NC(=O)[C@H](Cc1ccccc1)N[C@@H](CNC(=O)[C@H](CCCCN)NS(C)(=O)=O)C(=O)O | 40 | 650
7 | CS(=O)(=O)N[C@@H](CCCCNC(=O)OCc1ccccc1)C(=O)NC[C@H](N[C@H](C(=O)N[C@@H](Cc1ccc(O)cc1)C(=O)O)C1CCCCC1)C(=O)O | > 300 | 250
8 | CCOC(=O)[C@H](CNC(=O)[C@H](CCCCN)NS(C)(=O)=O)N[C@@H](Cc1ccccc1)C(=O)N[C@@H](Cc1ccc(O)cc1)C(=O)O | 300 | > 1000
9 | CS(=O)(=O)N[C@@H](CCCCN)C(=O)NC[C@H](NC1(C(=O)N[C@@H](Cc2ccc(O)cc2)C(=O)O)CCC1)C(=O)O | 42 | 
10 | CCC[C@H](N[C@@H](CNC(=O)[C@H](CCCCN)NS(C)(=O)=O)C(=O)O)C(=O)N[C@@H](Cc1ccc(O)cc1)C(=O)O | 6 | 30
11 | CS(=O)(=O)N[C@@H](CCCCN)C(=O)NC[C@H](N[C@@H](Cc1ccccc1)C(=O)N[C@@H](Cc1ccc(O)cc1)C(=O)O)C(=O)O [drawing 100: R1=CH3SO2NH; R5=OH; R6=OH; Z=NH2] | 35 | 50
12 | CS(=O)(=O)N[C@@H](CCCCN)C(=O)NC[C@H](N[C@@H](Cc1ccccc1)C(=O)N[C@@H](Cc1ccc(O)cc1)C(=O)OCCc1ccccc1)C(=O)O | 68 | 175
13 | O=C(CCCCCNC(=O)OCc1ccccc1)NC[C@H](N[C@@H](Cc1ccccc1)C(=O)N[C@@H](Cc1ccc(O)cc1)C(=O)O)C(=O)O [drawing 100: R1=H; R5=OH; R6=OH; Z=CbzNH] | 30 | 65
14 | CS(=O)(=O)N[C@@H](CCCCNC(=O)OCc1ccccc1)C(=O)NC[C@H](N[C@@H](Cc1ccccc1)C(=O)N[C@@H](Cc1ccc(O)cc1)C(=O)O)C(=O)O | 18 | 9
15 | CS(=O)(=O)N[C@@H](CCCCN)C(=O)NC[C@H](NC1(C(=O)N[C@@H](Cc2ccc(O)cc2)C(=O)O)CCCC1)C(=O)O | 35 | 45
16 | CS(=O)(=O)Nc1cccc(C[C@H](NC(=O)[C@H](Cc2ccccc2)N[C@@H](CNC(=O)[C@H](CCCCN)NS(C)(=O)=O)C(=O)O)C(=O)O)c1 | 25 | 15
17 | CS(=O)(=O)N[C@@H](CCCCN)C(=O)NC[C@H](NC1(C(=O)N[C@@H](Cc2ccc(O)cc2)C(=O)O)CCCCC1)C(=O)O | 190 | 
18 | CS(=O)(=O)N[C@@H](CCCCN)C(=O)NC[C@H](NC(C(=O)N[C@@H](Cc1ccc(O)cc1)C(=O)O)C1CC1)C(=O)O (single isomer, unassigned) [listing 2 of 2 here] | > 300 | 300
19 | NCCCCCC(=O)NC[C@H](N[C@@H](Cc1ccccc1)C(=O)N[C@@H](Cc1ccc(O)cc1)C(=O)O)C(=O)O [drawing 100: R1=H; R5=OH; R6=OH; Z=NH2] | 16 | 60
20 | CCC[C@H](N[C@@H](CNC(=O)[C@H](CCCCNC(=O)OCc1ccccc1)NS(C)(=O)=O)C(=O)O)C(=O)N[C@@H](Cc1ccc(O)cc1)C(=O)OC | 78 | 300
21 | COC(=O)[C@H](CNC(=O)[C@H](CCCCNC(=O)OCc1ccccc1)NS(C)(=O)=O)N[C@H](C(=O)N[C@@H](Cc1ccc(O)cc1)C(=O)O)C(C)C | 240 | > 1000
22 | CS(=O)(=O)N[C@@H](CCCCN)C(=O)NC[C@H](N[C@H](C(=O)N[C@@H](Cc1ccc(O)cc1)C(=O)O)C1CCCCC1)C(=O)O | > 300 | 121
23 | CCOC(=O)[C@H](CNC(=O)[C@H](CCCCNC(=O)OCc1ccccc1)NS(C)(=O)=O)N[C@@H](Cc1ccccc1)C(=O)N[C@@H](Cc1ccc(O)cc1)C(=O)O | > 300 | > 1000
24 | CCOC(=O)[C@H](Cc1ccc(O)cc1)NC(=O)[C@H](Cc1ccccc1)N[C@@H](CNC(=O)[C@H](CCCCNC(=O)OCc1ccccc1)NS(C)(=O)=O)C(=O)O | 38 | 50
25 | CCC[C@H](N[C@@H](CNC(=O)[C@H](CCCCN)NS(C)(=O)=O)C(=O)O)C(=O)N[C@@H](Cc1cccc(NS(C)(=O)=O)c1)C(=O)O | 200 | 40
26 | CCC[C@H](N[C@@H](CNC(=O)[C@H](CCCCNC(=O)OCc1ccccc1)NS(C)(=O)=O)C(=O)O)C(=O)N[C@@H](Cc1ccc(O)cc1)C(=O)O | 2 | 15
27 | CCC[C@H](N[C@@H](CNC(=O)[C@H](CCCCNC(=O)OCc1ccccc1)NS(C)(=O)=O)C(=O)O)C(=O)N[C@@H](Cc1cccc(NS(C)(=O)=O)c1)C(=O)OCC | 70 | 400
28 | CCC[C@H](N[C@@H](CNC(=O)[C@H](CCCCN)NS(C)(=O)=O)C(=O)O)C(=O)N[C@@H](Cc1ccc(O)cc1)C(=O)OC | 270 | 
29 | COC(=O)[C@H](CNC(=O)[C@H](CCCCN)NS(C)(=O)=O)N[C@H](C(=O)N[C@@H](Cc1ccc(O)cc1)C(=O)O)C(C)C | > 300 | > 1000
